# The source made the active and inactive calls.
# Key:
# [1] = target: T1, Ubiquitin-conjugating enzyme E2 N (Homo sapiens, UniProt P61088); type: functional;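 also: Dose-response confirmation in a TR-FRET assay detecting UBC13-driven polyubiquitin chain formation, inhibition measured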
# T1 sequence (P61088 whole entry): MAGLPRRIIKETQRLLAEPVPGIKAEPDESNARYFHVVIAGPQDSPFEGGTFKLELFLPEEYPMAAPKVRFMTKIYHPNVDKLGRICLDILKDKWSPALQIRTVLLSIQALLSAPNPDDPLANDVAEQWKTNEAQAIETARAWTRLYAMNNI
# [2] = target: DNA repair protein RAD52 homolog (Homo sapiens, UniProt P43351); type: functional, biochemical
# [3] = target: Major prion protein (Homo sapiens, UniProt P04156); type: functional, cell-based
# [4] = cells
# [5] = target: T2, DNA repair and recombination protein RAD54-like (Homo sapiens, UniProt Q92698); assay: RAD54 Holliday junction migration blockers – biochemical, fluorescence, cherry-picked samples, dose series, confirmation (AID 651657); type: functional
# T2 sequence (Q92698 whole entry): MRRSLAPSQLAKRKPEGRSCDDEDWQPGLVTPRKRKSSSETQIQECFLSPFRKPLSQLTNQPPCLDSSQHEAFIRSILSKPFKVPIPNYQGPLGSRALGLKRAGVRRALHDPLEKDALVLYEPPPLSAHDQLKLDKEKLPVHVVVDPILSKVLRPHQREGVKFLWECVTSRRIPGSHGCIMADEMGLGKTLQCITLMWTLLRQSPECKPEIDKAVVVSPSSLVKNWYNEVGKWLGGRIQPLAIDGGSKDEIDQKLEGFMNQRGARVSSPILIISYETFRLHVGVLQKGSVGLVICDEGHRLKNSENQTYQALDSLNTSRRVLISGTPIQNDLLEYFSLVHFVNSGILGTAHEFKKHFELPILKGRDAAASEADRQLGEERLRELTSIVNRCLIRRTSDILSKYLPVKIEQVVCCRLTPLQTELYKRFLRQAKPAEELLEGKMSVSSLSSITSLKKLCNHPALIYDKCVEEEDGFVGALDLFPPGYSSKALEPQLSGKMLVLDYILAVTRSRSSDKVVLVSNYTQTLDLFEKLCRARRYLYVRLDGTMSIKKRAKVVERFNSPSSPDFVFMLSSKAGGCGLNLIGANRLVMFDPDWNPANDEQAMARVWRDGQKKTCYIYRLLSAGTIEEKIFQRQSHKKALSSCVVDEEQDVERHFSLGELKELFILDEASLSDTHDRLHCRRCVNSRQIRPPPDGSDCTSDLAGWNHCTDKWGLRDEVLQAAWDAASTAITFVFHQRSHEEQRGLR
# [6] = general cell-killing toxicity readout – plate reader, dry powder samples, cytotoxicity control for PAX8 inhibitor project, dose response (AID 743021); type: functional, cell-based
# [7] = target: Paired box protein Pax-8 (Homo sapiens, UniProt Q06710); assay: PAX8 transcriptional activity inhibition in RMG-I – RMG-I cells, luciferase, cherry-pick, dose response (AID 687027); type: functional, cell-based;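 also: luciferase reporter driven by Pax8 target thyroperoxidase promoter measured by SteadyGlo luminescence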
# [8] = OVCAR8 cell viability loss – plate reader, dry powder samples, PAX8 project, dose response (AID 743197); type: functional, cell-based; settings: OVCAR-8
# [9] = target: Potassium channel subfamily K member 3 (Homo sapiens, UniProt O14649); assay: inhibition of human KCNK3 channel flux – CHO cells, FluxOR thallium flux, SAR follow-up (AID 652212); type: functional
# [10] = viability loss in HepG2 hepatoma cells – cell-based, cherry-picks, set 5, cytotoxicity control, dose response (AID 1053118); type: functional
# [11] = target: Albumin (Bos taurus, UniProt P02769); assay: Counterscreen for inhibitors of T-cell receptor (TCR)-CD3 interaction: Fluorescence-based biochemical high throughput dose response assay to identify inhibitors of T-cell receptor (TCR)-CD3 interaction using a TAMRA-labeled BSA probe.; type: functional
# [12] = reduction of Shn3 3'UTR-driven luciferase in osteoblasts – cell-based, Clone20 osteoblasts, firefly luciferase, cherry-picked, dose response (AID 624132); type: functional;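 also: firefly luciferase luminescence from reporter carrying the Shn3 3'UTR in osteoblasts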
# [13] = non-specific 3'UTR reporter inhibition in Clone20-Shn3RL – cell-based, Renilla luciferase, cherry-picked, counter-screen for Shn3 inhibitor project, dose response (AID 624133); type: functional
# [14] = system: INS1; assay: INS-1E survival protection against cytokine death – cell-based, luminescence, retest, dose response (AID 449756); type: functional; settings: Rattus norvegicus;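 also: cell death triggered by IL-1 beta plus TNF-alpha plus IFN-gamma mixture; protective hits raise ATP signal compared with cytokine alone wells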
# [15] = loss of viability in HepG2 cells – cell-based, CellTiter-Glo, cherry-picked, cytotoxicity control for Shn3 inhibitor project, dose response (AID 624134); type: functional
# [16] = blockers of bursicon-stimulated LGR2 cAMP reporter – cell-based, HEK293, CRE-luciferase reporter, cherry pick, set 2, dose response (AID 743343); type: functional;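 also: transfected cells were stimulated with diluted bursicon conditioned medium after compound addition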
# [17] = Fluorescence-based cell-based high throughput dose response assay for inhibitors of the interaction of nucleotide-binding oligomerization domain containing 2 (NOD2) and the receptor-interacting serine-threonine kinase 2 (RIPK2).; type: functional; settings: Homo sapiens
# [18] = toxicity toward HepG2 liver cells – cell-based, plate reader, cherry-pick, antagonist series, cytotoxicity control, dose response (AID 743416); type: functional
# [19] = A549 cell cytotoxicity, dose response, cytotoxicity control, plate reader, cherry-pick, antagonist series (AID 743412); type: functional, cell-based
# [20] = viability loss in HEK293 cells – cell-based, plate reader, cherry-picked samples, cytotoxicity control, dose response (AID 743446); type: functional
# [21] = target: COUP transcription factor 2 (Homo sapiens, UniProt P24468); assay: Luminescence-based cell-based high throughput dose response assay to identify inhibitors of COUP-TFII (NR2F2).; type: functional;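 also: HEK293 cells transiently cotransfected with COUP-TFII expression vector and reporter; luciferase reporter luminescence driven by COUP-TFII from the pX2-168 reporter plasmid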
# [22] = blockade of melanocortin 4 receptor signaling – cell-based, plate reader, cherry pick, counter-screen for LGR2 antagonist project, dose response (AID 743444); type: functional;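 also: transfected HEK 293 cells stimulated with alpha-MSH peptide; potency of inhibitors of the alpha-MSH evoked signal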
structure (smiles),measurement,setting,value
CCC[C@@H](CN1CCC[C@H]1CN1C(N)=NC[C@H]1CC(C)C)N1C[C@@H](Cc2ccccc2)N(CCCC2CCCC2)C1=N,IC50,[1],> 20 µM (inactive)
same,AC50,[2],19.5 µM (active)
COc1ccc(-c2nc3ccc(Br)cn3c2Cc2cccc(Cl)c2)cc1OC,IC50,[3],5.35 µM (active)
same,IC50,[4],> 138 µM (inactive)
Cc1ccc(-c2nc(NCCCN(C)C)c3ccccc3n2)cc1,AC50,[5],10.6 µM (active)
same,AC50,[2],7.08 µM (active)
COc1ccccc1C#Cc1ccc2c(c1)O[C@@H](CN(C)Cc1ccncc1)[C@H](C)CN([C@@H](C)CO)S2(=O)=O,AC50,[6],33.2 µM (active)
same,AC50,[7],2.84 µM (active)
same,AC50,[8],33 µM (active)
CCOc1ccccc1NC(=O)c1cccc(NC(=O)c2ccc(C(F)(F)F)cc2)c1,IC50,[9],0.22 µM (active)
CO[C@@H]1CN(C)C(=O)c2cc(NC(=O)Nc3ccc(Cl)c(Cl)c3)ccc2OC[C@H](C)NC[C@@H]1C,AC50,[10],> 52 µM (inactive)
O=C(N/N=C/c1cc(Cl)cc([N+](=O)[O-])c1O)c1cccc(S(=O)(=O)N2CCOCC2)c1,IC50,[11],> 94.1 µM (inactive)
OC(c1cc(-c2ccc(C(F)(F)F)cc2)nc(C(F)(F)F)c1)C1CCCCN1 (stereo not drawn) [ENPIROLINE],AC50,[12],4.73 µM (active)
same,AC50,[6],41.7 µM (active)
same,AC50,[7],17.9 µM (active)
same,AC50,[13],3.85 µM (active)
same,AC50,[14],6.95 µM (active)
same,AC50,[15],6.6 µM (active)
CC1CC(C)(O)CC(C(O)CC2CC(=O)NC(=O)C2)C1=O (stereo not drawn) [RESACTIN A],AC50,[12],0.339 µM (active)
same,AC50,[7],< 0.26 µM (active)
same,AC50,[16],0.441 µM (active)
same,AC50,[13],6.15 µM (active)
same,IC50,[17],49.7 µM (inactive)
same,AC50,[18],0.945 µM (active)
same,AC50,[19],0.424 µM (active)
same,AC50,[20],0.757 µM (active)
same,IC50,[21],0.36 µM (active)
same,AC50,[22],1.14 µM (active)

# From ChEMBL document CHEMBL1201862, “PubChem BioAssay data set” (2004)
